Data published in ChEMBL document CHEMBL1140126, “Optimizing natural products by biosynthetic engineering: discovery of nonquinone Hsp90 inhibitors” (J Med Chem, 2008).
≈ marks a conversion by molar mass, not a printed value. Each block holds one compound with its values, some of them ahead of it.

How the values were obtained:
Mus musculus [1] = experiment: Toxicity in nude mouse xenografted with human MAXF401 cells assessed as median body weight loss at 85 mg/kg/day, ip; type: organism-based; set-up: route intraperitoneal; settings: in vivo
[2] = Antitumor activity against human MAXF401 cells xenografted in nude mouse assessed as inhibition of tumor growth at 85 mg/kg/day, ip administered alternately for 5 days with 3 days intervals assessed on day 35; type: functional; settings: route intraperitoneal
[3] = Antitumor activity against human MAXF401 cells xenografted in nude mouse assessed as inhibition of tumor growth at 42.5 mg/kg/day, ip administered alternately for 5 days with 3 days intervals assessed on day 21; type: functional; settings: route intraperitoneal
[4] = Solubility at room temperature after 6 hrs by HPLC; type: physicochemical
Mus musculus [5] = experiment: Toxicity in NMRI nu/nu mouse assessed as body weight loss at 250 mg/kg/day for 5 days; type: organism-based; settings: in vivo, 120 h
[6] = Antitumor activity against human MAXF401 cells xenografted in nude mouse assessed as inhibition of tumor growth at 50 mg/kg/day, ip administered alternately for 5 days with 3 days intervals assessed on day 28; type: functional; settings: route intraperitoneal
Mus musculus [7] = experiment: Toxicity in nude mouse xenografted with human MAXF401 cells assessed as median body weight loss on day 21 at 50 mg/kg/day, ip; type: organism-based; set-up: route intraperitoneal; settings: in vivo
[8] = Toxicity in NMRI nu/nu mouse assessed as maximum tolerated dose; type: organism-based; settings: in vivo
[9] = Binding affinity to yeast HSP90; set-up: species or system Saccharomyces cerevisiae

Structure (SMILES): CO[C@H]1C[C@H](C)Cc2cc(O)cc(c2)NC(=O)/C(C)=C/CC[C@H](C)[C@@H](OC(N)=O)/C(C)=C/[C@H](C)[C@H]1O
Activity (Mus musculus [1]): 3.2% | T/C [2]: 45.3% | T/C [3]: 53.9% | solubility at 6 h [4]: > 200 µM | Activity (Mus musculus [5]): 3.8% | T/C [6]: 35.6% | Activity (Mus musculus [7]): 4.4% | MTD [8]: ≥ 250 mg/kg

Kd [9]: 6 nM
Structure (SMILES): CO[C@H]1C[C@H](C)[C@@H](O)c2cc(O)cc(c2)NC(=O)/C(C)=C/CC[C@H](C)[C@@H](OC(N)=O)/C(C)=C/[C@H](C)[C@H]1O

Structure (SMILES): CO[C@H]1[C@@H](OC)C[C@H](C)[C@@H](OC)C2=CC(=O)C=C(NC(=O)/C(C)=C/C=C\[C@H](C)[C@@H](OC(N)=O)/C(C)=C/[C@@H]1C)C2=O [MACBECIN]
solubility at 6 h [4]: 81 µM (≈ 45.3 µg/mL)

Structure (SMILES): C=CCNC1=C2C[C@@H](C)C[C@H](OC)[C@H](O)[C@@H](C)/C=C(\C)[C@H](OC(N)=O)[C@@H](OC)/C=C\C=C(/C)C(=O)NC(=CC1=O)C2=O [TANESPIMYCIN]
MTD [8]: 50 mg/kg
